We go through 11 compounds from patent US20250215016A1, “ISOXAZOLE-HETEROCYCLIC DERIVATIVE, PHARMACEUTICAL COMPOSITION AND USE” (SHANGHAI SIMR BIOTECHNOLOGY CO., LTD, priority 2022, published 2025).

By Ki is commonly meant the equilibrium dissociation constant of an inhibitor or competing ligand from its target.

Data set [1] can be described thus: Stability in simulated gastric fluid (SGF). Type of data set: physicochemical. The settings on record: 37° C., 1000 rpm. As to the method:
Simulated gastric fluid (SGF), Manufacturer: Dongguan Chuangfeng Automation Technology Co., Ltd.; Product model: CF-006.
Oscillating constant temperature metal bath, Model: Thermo; Manufacturer: Digital Skaking Drybath.
Temperature: 37° C.; rotating speed: 1000 rpm; sampling time: 0, 4 hours.
Chromatographic column: Welch Xtimate C18 3.0×100 mm, 5 μm. Mobile phase: A: 0.04% trifluoroacetic acid (TFA)/H2O (v/v), B: acetonitrile (ACN). Gradient elution was performed according to the following table, flow rate: 1.0 mL/min; injection volume: 5 μL; column temperature: 35° C.; wavelength: 254 nm.
• (a) preparation of 0.04% TFA/H2O: 400 μL of TFA was measured, placed into 1 L of H2O, and homogenously mixed; • (b) Sample stock solution: about 3 mg of test sample was weighed, and prepared into a stock solution of 10 mmol/L using DMSO; • (c) 50 μL of the sample stock solution was taken, placed into a 5 mL volumetric flask, made up to the scale with the addition of SGF, and homogenously mixed. 400 μL of the solution was taken, four samples in parallel, and shaken at 1000 rpm and 37° C.; • (d) every two samples were taken after 0 and 4 hours respectively, 400 μL of acetonitrile was added, and homogenously mixed, followed by liquid phase injection, and calculation of the change % of the main peak area in the solution after 4 hours relative to 0 hour, two average value reports being taken at each time point.

In data set [2] the target is α5-GABAA receptor (Homo sapiens (Human), UniProt P18507+P31644). The data set can be described thus: Whole-cell patch clamp electrophysiology, inverse regulation activity in α5β3γ2-HEK293 cells. Format: cell-based. As to conditions: compound 100 nM; GABA 0.05-0.06 μM (about EC7-8); clamped at −60 mV; read-out: Inverse regulation efficiency to α5-GABAA receptor. From the text:
α, β and γ subunits are essential for the formation of a complete functional GABAA receptor. […] The specific subunit protein sequences are as follows: α5 subunit (protein sequence can be found in GenBank accession number: NM_000810.3); α2 subunit (protein sequence can be found in GenBank accession number: NM_000807.4); β3 subunit (protein sequence can be found in GenBank accession number: NM_000814.5); γ2 subunit (protein sequence can be found in GenBank accession number: NM_000816.3).
(§1) The above cell lines were subcultured. Amplification of α5β3γ2-HEK293 and α2β3γ2-HEK293 cells was used to test the affinity of the compounds to benzodiazepine site (BZD) of the GABAA receptor. During the passage of α5β3γ2-HEK293 cells, some of the suspended cells were spread on a glass slide pretreated with Poly-D-Lysine for electrophysiological testing.
The inverse regulation activity of the test drugs on α5-GABAA receptor was detected by an electrophysiological method. The specific method was as follows:
Compound concentration setting: the final concentration of the compounds used for compound screening was 100 nM. GABA concentration was 0.05-0.06 μM (about EC7-8). […] The extracellular fluid (ECS) ingredients for electrophysiology were as follows: 150 mM NaCl, 5 mM KCl, 2.5 mM CaCl2, 1 mM MgCl2, 10 mM HEPES and 10 mM glucose (pH 7.4); the electrode internal solution (ICS) formula for electrophysiology was as follows: 140 mM CsCl, 11 mM EGTA, 10 mM HEPES, 2 mM CaCl2, 1 mM MgCl2, 4 mM MgATP, 2 mM TEA (pH 7.3). The above reagents were all purchased from Sigma aldrich. GABA (γ-aminobutyric acid, from sigma aldrich, lot: A5385) powder was prepared into a stock solution with pure water and then diluted in ECS. The compound was first prepared into a 4 mM stock solution with DMSO, and then gradually diluted in corresponding concentrations of GABA-ECS. The solutions were all prepared fresh prior to electrophysiological testing.
Electrophysiological signal acquisition were performed by using EPC 10 amplifier and PatchMaster software (HEKA) or Axon 700 B amplifier and Clampex software (AXON). The recording electrode was made by drawing borosilicate glass (purchased from sutter), and has an electrode resistance of 4˜6 MΩ. Extracellular administration was carried out using ALA-VC-8PG (purchased from ALA, USA) system. A single independently grown cell was selected, and lysis was performed after the glass electrode and the cell forming a good seal, to form a whole cell mode. With the cellular membrane potential clamped at −60 mV, recording was carried out in the Gap-free mode. For the test, extracellular fluid was first applied extracellularly for about 20 seconds. After baseline (Iprebaseline) was stabilized, the extracellular fluid was switched to GABA-ECS. At this time, the current (Igaba) caused by GABA can be detected. At about 20-40 seconds, after the current stabilized, the extracellular fluid was switched to a mixed solution of the compound and GABA-ECS, until the current (Itreatment) caused by both the compound and GABA can be detected. Finally, the solution was switched to the extracellular fluid and the test was terminated after recording for 20-40 seconds.
The experimental results were analyzed using PatchMaster v2x90.1 or PatchMaster v2x90.3 software (EPC 10 amplifier) and Clampex10.6 software (Axon700B amplifier). The current value of each stage was calculated according to the average value of the stabilized current under the corresponding conditions. We defined the control current as Igaba−Iprebaseline, and the current after compound treatment as Itreatment−Iprebaseline. The inverse regulation activity of the compounds is expressed as a percentage and is calculated according to the following formula: Inverse regulation efficiency=[(Itreatment−Igaba)/(Igaba−Iprebaseline)]×100%.
In general terms: Patch clamp records ionic current or voltage across a cell membrane.

The target of data set [3] is human α5β3γ2 receptor (α5-GABAA receptor) (Homo sapiens (Human), UniProt P18507+P31644). The data set is described as follows: Radioligand (3H-flunitrazepam) competition binding assay, BZD site. As to conditions: 3H-flunitrazepam 1 nM; HEK293 membranes expressing human α5β3γ2.
From the text: (§2) α, β and γ subunits are essential for the formation of a complete functional GABAA receptor. In this example, HEK293 cell strains stably expressing human α5-GABAA receptor (comprising α5β3γ2 subunit) and α2-GABAA receptor (comprising α2β3γ2 subunit) were constructed and screened, respectively, by liposome transfection method (Felgner, P. L., et al., Proceedings of the National Academy of Sciences, 1987, 84:7413-7417). The specific subunit protein sequences are as follows: α5 subunit (protein sequence can be found in GenBank accession number: NM_000810.3); α2 subunit (protein sequence can be found in GenBank accession number: NM_000807.4); β3 subunit (protein sequence can be found in GenBank accession number: NM_000814.5); γ2 subunit (protein sequence can be found in GenBank accession number: NM_000816.3).
as §1
(§3) Flunitrazepam is a non-specific reagent that binds to the BZD site efficiently. The affinity of the compounds to the BZD sites of the human α5β3γ2 and α2β3γ2 receptors can be determined by competing the compound with ^3H-flunitrazepam (isotope ^3H-labeled flunitrazepam) for binding to these two receptors.
(§4) Membrane preparation: HEK293 cells stably expressing human α5β3γ2 receptor or α2β3γ2 receptor were collected, suspended in 50 mM Tris-HCl buffer (pH=7.4), homogenized on ice by a homogenizer for 20 seconds 10 times, and centrifuged at 4° C., 1000 g for 10 min. The supernatant was collected, and the above steps were repeated. The supernatant was centrifuged (33800 g; centrifuge purchased from Thermo, rotor model: A27-8×50) at 4° C. for 60 min, and the precipitate was resuspended in Tris buffer (50 mM Tris-HCl, 10 mM MgCl2, 0.5 mM EDTA, 10% glycerol). The precipitate was the cell membrane. Protein content was determined by BCA (Bicinchoninic Acid) method (BCA kit from Pierce (Annoron)). The cell membrane was prepared into 1 ml aliquot and stored at −80° C.
(§5) Radioligand competition binding assay: the assay was carried out in a 200 μL system (96-well plate from Agilent) with 100 μL of cell membrane. The concentration of ^3H-flunitazepam (from PerkinElmer, lot: NET567250 UC) was 1 nM and the concentration of test compound was in the range 1×10^−5-10^−6 M. Flumazenil (from Tocris; lot: 1318) was used as a control. 1 μL of 2 mM flumazenil (final concentration 10 μM) was added to the Low signal control well (Low control, LC) and 1 μL of DMSO (from Sigma aldrich, lot: 472301) was added to the High signal control well (High control, HC). The final target membrane protein concentration was 5 μg/well. All test compound sample stocks were 10 mM DMSO solutions. The working concentration of the samples is to dilute all samples with DMSO to 0.2 mM, and then perform 4-fold continuous gradient dilution for a total of 8 concentration gradients. The 96-well plate was sealed with a plate sealing membrane and then incubated on a shaker at room temperature for 1 hour. Meanwhile, GF/C filter plate was soaked with a plate soaking buffer (0.3% PEI, polyethyleneimine, purchased from Sigma aldrich, model: P314, stored at 4° C.) for at least 0.5 hours. After completion of binding incubation, the cells were collected with a cell collector onto the GF/C filter plate and washed four times with a plate washing buffer (50 mM Tris-HCl, pH 7.4, stored at 4° C.). […]

In data set [4] the target is human α2β3γ2 receptor (α2-GABAA receptor) (Homo sapiens (Human), UniProt P18507+P47869). The data set can be described thus: Radioligand (3H-flunitrazepam) competition binding assay, BZD site; α2 vs α5 binding selectivity. As to conditions: ratio of Ki at α2β3γ2 to Ki at α5β3γ2.
From the text: as §2, §1, §3, §4, §5

On to `Cc1onc(-c2ccc(F)cc2)c1COc1cnc(N2CCn3c(C)nnc3C2)cn1` [Compound 27], for which the “Residual content in simulated gastric juice after 4 hours (compared with 0 hour content)” value in data set [1] is 63% (4 hours). For the same compound, the inhibition at 0.1 µM in data set [2] was determined as 39%. Also, the inhibition constant (Ki) in data set [3] worked out at 3.9 nM.
For `Cc1onc(-c2ccc(F)cc2)c1COc1cnc(-c2nnc3n2CCCC3)cn1` [Compound 32, 3-(4-fluorophenyl)-5-methyl-4-(((5-(5,6,7,8-tetrahydro-[1,2,4]triazolo[4,3-a]pyridin-3-yl)pyrazin-2-yl)oxy)methyl)isoxazole], in that order: 83% (4 hours), 35% and 4.93 nM.
In the same order, the values of `Cc1onc(-c2ccc(F)cc2)c1COc1cnc(N2CCN3CCOC[C@@H]3C2)cn1` [Compound 40, (S)-8-(5-((3-(4-fluorophenyl)-5-methylisoxazol-4-yl)methoxy)pyrazin-2-yl) octahydropyrazino [2,1-c][1,4]oxazine] are 98% (4 hours), 18% and 21.8 nM.
In the case of `Cc1onc(-c2ccc(F)cc2)c1COc1cnc(-c2cnn3c2COCC3)cn1` [Compound 44, 3-(5-((3-(4-fluorophenyl)-5-methylisoxazol-4-yl)methoxy)pyrazin-2-yl)-6,7-dihydro-4H-pyrazolo[5,1-c][1,4]oxazine], the “Residual content in simulated gastric juice after 4 hours (compared with 0 hour content)” value in data set [1] is 94% (4 hours). Besides, the inhibition at 0.1 µM in data set [2] came to 36%. The same compound had a Ki in data set [3] of 0.99 nM.
In the same order, the values of `Cc1cn2c(n1)CN(c1cnc(OCc3c(-c4ccc(F)cc4)noc3C)cn1)CC2` [Compound 46, 3-(4-fluorophenyl)-5-methyl-4-(((5-(2-methyl-5,6-dihydroimidazo [1,2-a]pyrazin-7(8H)-yl)pyrazin-2-yl)oxy)methyl)isoxazole] are 87% (4 hours), 21% and 3.09 nM.
In the same order, the values of `Cc1onc(-c2ccc(F)cc2)c1COc1cnc(N2CCn3ccnc3C2)cn1` [Compound 48, 4-(((5-(5,6-dihydroimidazo [1,2-a]pyrazin-7(8H)-yl)pyrazin-2-yl)oxy)methyl)-3-(4-fluorophenyl)-5-methylisoxazole] are 88% (4 hours), 25% and 68.5 nM.
Consider `Cc1onc(-c2ccc(F)cc2)c1COc1ccc(N2CCN3CCOC[C@@H]3C2)nn1` [Compound 49, (S)-8-[6-((3-(4-fluorophenyl)-5-methylisoxazol-4-yl)methoxy)pyridazin-3-yl] octahydropyrazino[2,1-c][1,4]oxazine], for which, in data set [1], the “Residual content in simulated gastric juice after 4 hours (compared with 0 hour content)” value is listed as 31% (4 hours). Also, in data set [2], the inhibition at 0.1 µM turned out to be 37%. This compound also registered an inhibition constant (Ki) in data set [3] of 3.84 nM.
On to `Cc1onc(-c2ccc(F)cc2)c1COc1ccc(-n2nnc3c2CCOC3)cn1` [Compound 50, 1-(6-((3-(4-fluorophenyl)-5-methylisoxazol-4-yl)methoxy)pyridin-3-yl)-1,4,6,7-tetrahydropyran[3,4-d][1,2,3]triazole], for which, in data set [1], the “Residual content in simulated gastric juice after 4 hours (compared with 0 hour content)” value is 82% (4 hours). Moreover, the inhibition at 0.1 µM in data set [2] amounted to 49%. This compound returned a Ki in data set [3] of 8.63 nM.
For the compound `COc1ncc(-c2ccc(OCc3c(C)nnn3-c3ccc(C(F)F)cc3)nn2)cn1` [WO2020016443A1, Example 3, reference compound], in data set [4], the “Selectivity α2 ki/α5 ki” value is on record as 14.5 folds.
Still for that read-out and setting: the figure for `Cc1ncc(-c2ccc(OCc3c(C)nnn3-c3ccc(C(F)F)cc3)nn2)o1` [WO2020016443A1, Example 6, reference compound] is 13.2 folds; for `Cc1nnn(-c2ccc(C(F)F)cc2)c1COc1ccc(-n2cnc(C(F)F)c2)nn1` [WO2020016443A1, Example 15, reference compound] it is 7.67 folds.
